{
  "source": "paper PMC10137179",
  "about": "“Assessment of Covalently Binding Warhead Compounds in the Validation of the Cytomegalovirus Nuclear Egress Complex as an Antiviral Target” (Cells, 2023)",
  "key": {"[1]": {"biological_target": "T1, pUL50-HA + pUL53-Flag (Human cytomegalovirus, UniProt P16791)", "T1 construct": "expressed in transfected cells; host or cells: 293T", "T1 sequence (P16791 whole entry)": "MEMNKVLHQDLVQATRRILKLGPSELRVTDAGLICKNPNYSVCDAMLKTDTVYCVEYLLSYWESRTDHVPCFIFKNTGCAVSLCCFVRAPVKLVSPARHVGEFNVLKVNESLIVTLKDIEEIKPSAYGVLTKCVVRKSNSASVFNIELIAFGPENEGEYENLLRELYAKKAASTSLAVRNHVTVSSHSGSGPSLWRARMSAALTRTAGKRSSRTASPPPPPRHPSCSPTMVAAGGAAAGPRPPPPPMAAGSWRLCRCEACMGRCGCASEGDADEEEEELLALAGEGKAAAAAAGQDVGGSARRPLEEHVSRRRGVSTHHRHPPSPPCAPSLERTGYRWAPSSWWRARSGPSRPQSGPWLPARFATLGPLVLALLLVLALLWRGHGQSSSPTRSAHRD", "assay": "Coimmunoprecipitation (CoIP) of pUL50-HA and pUL53-Flag from cotransfected 293T cells", "type": "binding, HCMV", "conditions": "serial concentrations, mostly at 20–40 µM; added 24 h p.t. or after cell lysis", "method": "For CoIP analysis, 293T cells were seeded in 10 cm dishes with a density of 5 × 10^6 cells and used for transient transfection with expression plasmids. Then, 2–3 days post-transfection (d p.t.), CoIP was performed as described previously, using mAb-HA (H9658, Sigma-Aldrich, St. Louis, MO, USA). In brief, cells were lysed in 500 μL CoIP buffer (50 mM Tris/HCl (pH 8.0), 150 mM NaCl, 5 mM EDTA, 0.5% NP-40, 1 mM PMSF, 2 μg/mL aprotinin, 2 μg/mL leupeptin and 2 μg/mL pepstatin). Subsequently, total lysates were incubated with antibody-coated (2 μL of tag-specific or control antibodies) Dynabeads® Protein A (30 μL per sample; Life Technologies, Carlsbad, CA, USA) for 2 h at 4 °C under rotation. The precipitates were washed five times with 1 mL of CoIP buffer. CoIP samples and lysate controls were taken prior to the addition of the CoIP antibody. SDS-PAGE and standard Western blot analysis of cell lysates was performed using equal protein amounts as described previously. […]\nIn both cases, total lysates were prepared at 48 h p.t., and the CoIP analysis was performed under continued drug treatment (Figure S3). The protein applied as the basis for IP (using tag-specific mAb-HA) was pUL50-HA, and pUL53-Flag was detected as the CoIP partner. […]"}, "[2]": {"test_system": "HCMV AD169-GFP", "assay": "microbe, parasite or virus in culture", "type": "cell-based, human cytomegalovirus (HCMV)", "conditions": "Human betaherpesvirus 5, AD169, 168 h, clinically relevant warheads, 0.1 µM to 50 µM, AD169-GFP-infected HFFs, 7 d p.i.", "method": "Cytotoxicity of the analyzed compounds was determined by the Neutral Red dye uptake assay. A total of 1.35 × 10^5 HFFs per well were seeded in 96-well plates 1 d prior to analysis, cultivated overnight until cells were confluent and then incubated with compounds for 7 days. The assay was performed as described previously using 40 μg/mL Neutral Red (Sigma Aldrich). The quantity of dye incorporation was determined using the Victor X4 microplate reader (PerkinElmer, Waltham, MA, USA) by fluorescence measurement at 560/630 nm for excitation/emission, respectively. To assess antiviral activity of compounds, HFFs seeded in 96-well plates (1.35 × 10^5 HFFs per well) were infected with HCMV AD169-GFP or TB40-IE2-YFP to reach 25–50% infected cells at 7 days post-infection (d p.i.). After incubation with the infectious inoculum for 1.5 h at 37 °C, compounds were added in serial dilutions. At 7 d p.i., cells were fixed for 10 min at room temperature using 10% formalin. Finally, cells were washed once with PBS followed by automated fluorescence quantitation.\nSeeking for a novel group of potential antiviral agents, small molecules with covalent protein-binding activity were investigated. These small molecules, originally developed as kinase inhibitors, carry a so-called warhead moiety as an important functional group, such as the prototype afatinib (Figure 1A, red circle). In this study, a series of newly generated warhead compounds (most of which are the property of B.K./Lead Discovery Center, Dortmund, Germany) were used for an evaluation of putative antiviral and core NEC-inhibitory properties. In a first step, the antiviral activity of warheads was analyzed against HCMV TB40-IE2-YFP (Figure 1B) and AD169-GFP (Figure 1C). To this end, HFFs were infected with either of the two viral strains before the GFP or YFP reporter signals were measured at 7 d p.i. (in parallel, putative compound cytotoxicity was determined by Neutral Red assay). The HCMVs AD169-GFP and TB40-IE2-YFP, based on BAC-derived recombinants of the laboratory strains AD169 and TB40, respectively, were both propagated on HFFs, and the produced stocks were then used as two reporter viruses for the assessement of antiviral drug activity. While strain AD169 is mainly restricted in its tropism to fibroblasts, TB40 tropism can be extended to fibroblasts and epithelial and endothelial cells. Here, the use of two strains was intended to illustrate the assumption that antiviral activity of these warhead compounds may be directed to conserved viral target proteins, thus pointing out a minor impact of strains.\n(A) Chemical structure of a clinically approved prototype of covalently binding warhead inhibitors, […], afatinib/Gilotrif®. The red circle identifies a functionally active α-, β-unsaturated carbonyl group. (B) At 7 d p.i., compounds were analyzed for their cytotoxicity (orange) and antiviral activity (blue) during HCMV infection, using TB40-IE2-YFP as a reporter virus. Cell viability was assessed through Neutral Red staining of uninfected cells. Measurements were performed in quadruplicate (YFP fluorometry) or triplicate (Neutral Red assay), and standard deviations of mean values are given; EC50, CC50 and SI values are indicated accordingly. (C) In a parallel series of analyses, HCMV AD169-GFP was used as another reporter virus representing a second viral strain. […] HCMV AD169-GFP-infected HFFs were treated with 0.1 µM to 50 µM of the compounds (in parallel Neutral Red assay, 0.1 µM to 100 µM), before the signal assessments were performed at 7 d p.i."}, "[3]": {"biological_target": "T2, pUL50–pUL53 interaction (LgBiT::UL53-Flag + SmBiT::UL50-HA) (Human cytomegalovirus, UniProt P16791)", "T2 construct": "expressed in transfected cells; host or cells: 293T", "T2 sequence (P16791 whole entry)": "as above", "type": "cell-based", "conditions": "293T cells, 5×, 1× or 0.2× anti-HCMV EC50 levels, full-length LgBiT::UL53-Flag"}},
  "data": [
    {"smiles": "C=CC(=O)N1CCC[C@@H](n2nc(-c3ccc(Oc4ccccc4)cc3)c3c(N)ncnc32)C1", "note": "[ibrutinib]", "values": [
      {"measurement": "coimmunoprecipitated pUL53-Flag (in words)", "setting": "[1]", "result": "trend of a reduction in coimmunoprecipitated pUL53-Flag"},
      {"measurement": "EC50", "setting": "[2]", "result": "16 ± 6", "unit": "µM"},
      {"measurement": "inhibitory effect on NanoBiT interaction signal (in words)", "setting": "[3]", "result": "most prominent, dose-dependent reduction in the measured interaction signal"}
    ]}
  ]
}
